Source: article PMC8878464, “Fenchone Derivatives as a Novel Class of CB2 Selective Ligands: Design, Synthesis, X-ray Structure and Therapeutic Potential” (Molecules, 2022)
Where “and” joins values, the source holds several entries; their conditions need not be identical. Equal entries are not always repeated. Entries after “also recorded” stand apart in the source; their conditions may differ. Where two headings read alike, the source gives them in different places.

Experiments:
[1] = target: human CB2R (hCB2R) (Homo sapiens, UniProt P34972); assay: [3H]CP-55,940 competition displacement binding assay, hCB2R membranes
Sequence of human CB2R (hCB2R) (P34972 whole entry): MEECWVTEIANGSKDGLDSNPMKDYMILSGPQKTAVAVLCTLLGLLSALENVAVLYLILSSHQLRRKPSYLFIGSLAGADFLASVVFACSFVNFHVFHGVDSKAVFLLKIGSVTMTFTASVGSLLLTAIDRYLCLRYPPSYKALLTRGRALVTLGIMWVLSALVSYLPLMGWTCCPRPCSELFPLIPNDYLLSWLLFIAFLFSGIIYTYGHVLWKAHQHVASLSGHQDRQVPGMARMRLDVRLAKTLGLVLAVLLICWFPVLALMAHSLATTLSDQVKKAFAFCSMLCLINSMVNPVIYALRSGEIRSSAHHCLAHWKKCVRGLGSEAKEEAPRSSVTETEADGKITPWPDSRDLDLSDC
Protocol: (§1) The compounds were further characterized using a radioligand binding assay to determine their affinities for CB1R and CB2R based on each test compound’s ability to displace the radiolabeled CB1R/CB2R agonist CP-55,940 from membranes of cells expressing the human CB1R and CB2R [24].
(§2) Membranes from cells expressing hCB1R and hCB2R were purchased from Charles River, (Cat#A317 and A318, respectively; OH, USA). Solutions of test compounds ranging from 0.1 nM to 10 mM were prepared in DMSO. The desired amount of membrane preparation was diluted with ice-cold assay buffer (50 mM Tris-HCl, 2.5 mM EDTA, 5 mM MgCl2, 0.1% BSA, pH 7.4) and was vortexed. […] The assays were incubated for 90 min at 30 °C and then immediately filtered on WHATMAN GF/B Filter Paper (Fired) using a Brandel M-24R Harvester followed by six washes with ice cold wash buffer (50 mM Tris-HCl, 2.5 mM EDTA, 5 mM MgCl2, 0.1% BSA, pH 7.4). Radioactivity was detected by adding the Filter Paper directly to the ULTIMA GOLD scintillation cocktail (PerkinElmer, Waltham, MA, USA), incubation at 20 °C for 60 min and then counted using a Tri-Carb 4910TR liquid scintillation counter (PerkinElmer, Waltham, MA, USA).
Each curve represents the mean of three experiments performed in triplicate.

[2] = target: T1, hCB2R (Homo sapiens, UniProt P34972); assay: [35S]GTPγS binding assay at hCB2R; type: biochemical; details: for functional activity at hCB2R (agonist / antagonist / inverse agonist): [35S]GTPγS binding; for EC50: increase in [35S]GTPγS binding to hCB2R, two independent experiments in triplicate
T1 construct: purchased Charles River A318; host or cells: CHO-K1 cells
T1 sequence (P34972 whole entry): as above
Protocol: The method used for measuring agonist-stimulated binding of [^35S]GTPγS was based on a described protocol. Membranes (5 μg protein) were incubated in GTPγS assay buffer (50 mM Tris HCl (pH 7.4), 0.2 mM EGTA, 9 mM MgCl2, 150 mM NaCl, 1 mg/mL BSA) containing 100 μM GDP, 0.05 nM [^35S]GTPγS and test compounds at various concentrations. Vacuum filtration was used to separate bound ligand from free ligand. We used 10 μM GTPS to determine nonspecific binding. Basal binding was assayed in the absence of the ligand and in the presence of GDP.
Each symbol represents the mean percentage increase in [^35S]GTPγS binding ± SE.

[3] = target: T2, human CB1R (hCB1R) (Homo sapiens, UniProt P21554); assay: [3H]CP-55,940 competition displacement binding assay, hCB1R membranes
T2 construct: purchased Charles River A317
T2 sequence (P21554 whole entry): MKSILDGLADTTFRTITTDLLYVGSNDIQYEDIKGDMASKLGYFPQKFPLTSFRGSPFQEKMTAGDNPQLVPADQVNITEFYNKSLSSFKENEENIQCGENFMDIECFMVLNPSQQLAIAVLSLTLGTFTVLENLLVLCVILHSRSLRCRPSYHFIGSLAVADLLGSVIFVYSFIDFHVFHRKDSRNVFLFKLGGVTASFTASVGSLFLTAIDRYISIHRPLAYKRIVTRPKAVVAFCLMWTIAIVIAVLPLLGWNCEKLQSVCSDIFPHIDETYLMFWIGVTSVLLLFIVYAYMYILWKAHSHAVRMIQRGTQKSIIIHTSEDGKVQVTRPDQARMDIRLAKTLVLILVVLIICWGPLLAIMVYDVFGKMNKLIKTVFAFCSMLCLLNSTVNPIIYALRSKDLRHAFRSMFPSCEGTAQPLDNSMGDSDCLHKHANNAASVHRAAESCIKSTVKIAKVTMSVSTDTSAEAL
Protocol: as §1, §2

[4] = test system: zymosan-induced paw inflammation; assay: Zymosan-induced hind paw swelling (oedema) in mice; type: in vivo; details: 25 mg/kg ip, 6 h after 60 μg zymosan paw injection
[5] = test system: TNF-α; assay: Serum TNF-α (ELISA) after zymosan injection in mice; type: in vivo; details: 25 mg/kg ip, 24 h after zymosan
Protocol: Control mice were injected with vehicle.
A mouse TNFα ELISA kit was used according to the manufacturer’s instructions (R&D Systems, Minneapolis, MN, USA).

[6] = displacement of [3H]CP-55,940, membranes of CHO-K1 cells expressing human CB2R, read-out: Ki (nM) hCB2R
[7] = maximal effect as percentage of HU-308 response at 1 µM

| Compound | Ki [1, 6] | functional activity at hCB2R (agonist / antagonist / inverse agonist) [2] | Ki ([3]; read-out: Ki (nM) hCB1R) | further results |
| --- | --- | --- | --- | --- |
| CCCCCCc1ccc(OC)c(C2(O)C3(C)CCC(C3)C2(C)C)c1OC (centres unmarked) [Compound 2b, 2-(3′-Hexyl-2′,6′-dimethoxyphenyl)-1,3,3-trimethylbicyclo[2.2.1]heptan-2-ol] | 73.4 nM | weakly stimulated; also recorded: agonist | – | E(max)% [2]: 46.2%; EC50 [2]: 1940 nM |
| CCCCCCC(C)(C)c1cc(OC)c(C2(O)C3(C)CCC(C3)C2(C)C)c(OC)c1 (centres unmarked) [Compound 1c, 2-(2′,6′-Dimethoxy-4′-(2″-methyloctan-2″-yl)phenyl)-1,3,3-trimethylbicyclo[2.2.1]heptan-2-ol] | 56.8 nM | agonist | > 10000 nM | EC50 [2]: 121 nM |
| CCCCCCC(C)(C)c1cc(OC)c(C2(O)C3(C)CCC(C3)C2(C)C)c(OC)c1F (centres unmarked) [Compound 4d, 2-(3′-fluoro-2′,6′-dimethoxy-4′-(2″-methyloctan-2″-yl)phenyl)-1,3,3-trimethylbicyclo[2.2.1]heptan-2-ol] | 56.6 nM | agonist | – | EC50 [2]: 104 nM; E(max)% [2, 7]: 119% |
| CCCCCc1cc(OC)c(C2(O)C3(C)CCC(C3)C2(C)C)c(OC)c1 (centres unmarked) [Compound 1b, 2-(2′,6′-Dimethoxy-4′-pentylphenyl)-1,3,3-trimethylbicyclo[2.2.1]heptan-2-ol] | 14.4 nM | agonist | – | E(max)% [2]: 65.1%; EC50 [2]: 11.6 nM; reduction in swelling [4]: 54%; inhibition of TNF-α serum levels [5]: 39% |
| CCCCCCC(C)(C)c1cc(OC)c(C2(O)C3(C)CCC(C3)C2(C)C)c(OC)c1F (centres unmarked) [Compound 4c, 2-(3′-fluoro-2′,6′-dimethoxy-4′-(2″-methyloctan-2″-yl)phenyl)-1,3,3-trimethylbicyclo[2.2.1]heptan-2-ol] | 438 nM | – | > 10000 nM | – |
| CCCCCc1cc(O)c(C2(O)C3(C)CCC(C3)C2(C)C)c(OC)c1 (centres unmarked) [Compound 5a, 2-(2′-hydroxy-6′-methoxy-4′-pentylphenyl)-1,3,3-trimethylbicyclo[2.2.1]heptan-2-ol] | 4980 nM | – | > 10000 nM | – |
| COc1cc(C)cc(OC)c1C1(O)C2(C)CCC(C2)C1(C)C (centres unmarked) [Compound 1f, 2-(2′,6′-Dimethoxy-4′-methylphenyl)-1,3,3-trimethylbicyclo[2.2.1]heptan-2-ol] | 233 nM | – | – | – |
| CCCCCc1cc(OC)c(C2(O)C3(C)CCC(C3)C2(C)C)c(OC)c1F (centres unmarked) [Compound 4a, 2-(3′-Fluoro-2′,6′-dimethoxy-4′-pentylphenyl)-1,3,3-trimethylbicyclo[2.2.1]heptan-2-ol] | 155 nM | – | > 10000 nM | – |
| CCCCCc1cc(OC)c(C2(O)C3(C)CCC(C3)C2(C)C)c(OC)c1F (centres unmarked) [Compound 4b, 2-(3′-Fluoro-2′,6′-dimethoxy-4′-pentylphenyl)-1,3,3-trimethylbicyclo[2.2.1]heptan-2-ol] | 28.3 nM | agonist | – | EC50 [2]: 305 nM; E(max)% [2, 7]: 54.2% |
| CCCc1ccc(OC)c(C2(O)C3(C)CCC(C3)C2(C)C)c1 (centres unmarked) [Compound 3b, 2-(2′-Methoxy-5′-propylphenyl)-1,3,3-trimethylbicyclo[2.2.1]heptan-2-ol] | 610 nM | – | – | – |
| CCCCCCCCc1ccc(OC)c(C2(O)C3(C)CCC(C3)C2(C)C)c1 (centres unmarked) [Compound 3h, 2-(2′-Methoxy-5′-octylphenyl)-1,3,3-trimethylbicyclo[2.2.1]heptan-2-ol] | – | – | > 10000 nM | – |
| 2-(2′-Methoxy-5′-octylphenyl)-1,3,3-trimethylbicyclo[2.2.1]heptan-2-ol [Compound 3g] | – | – | – | Ki ([3]; displacement of [3H]CP-55,940, class word NB, read-out: Ki (nM) hCB1R): > 10000 nM |
| CCCCCCC(C)(C)c1cc(O)c(C2(O)C3(C)CCC(C3)C2(C)C)c(OC)c1 (centres unmarked) [Compound 5c, 2-(2′-Hydroxy-6′-methoxy-4′-(2″-methyloctan-2″-yl)phenyl)-1,3,3-trimethylbicyclo-[2.2.1]heptan-2-ol] | 107 nM | – | > 10000 nM | – |
| CCCCCc1cc(OC)c(C2(O)C3(C)CCC(C3)C2(C)C)c(OC)c1 (centres unmarked) [Compound 1a, 2-(2′,6′-Dimethoxy-4′-pentylphenyl)-1,3,3-trimethylbicyclo[2.2.1]heptan-2-ol] | 47.7 nM | – | > 10000 nM | inhibition of [3H]CP-55,940 binding to hCB1R ([3]; result in words): no measurable inhibition |
| CCC(C)(C)c1ccc(OC)c(C2(O)C3(C)CCC(C3)C2(C)C)c1 (centres unmarked) [Compound 3e, 2-(2′-Methoxy-5′-(tert-pentyl)phenyl)-1,3,3-trimethylbicyclo[2.2.1] heptan-2-ol] | 2870 nM | – | > 10000 nM | – |
| COc1cc(C)cc(OC)c1C1(O)C2(C)CCC(C2)C1(C)C (centres unmarked) [Compound 1e, 2-(2′,6′-Dimethoxy-4′-methylphenyl)-1,3,3-trimethylbicyclo[2.2.1]heptan-2-ol] | – | – | > 10000 nM | Ki ([1]; displacement of [3H]CP-55,940, value given in µM, read-out: Ki (nM) hCB2R): > 10000 nM |
| CCCc1ccc(OC)c(C2(O)C3(C)CCC(C3)C2(C)C)c1 (centres unmarked) [Compound 3a, 2-(2′-Methoxy-5′-propylphenyl)-1,3,3-trimethylbicyclo[2.2.1]heptan-2-ol] | 1010 nM | – | > 10000 nM | – |
| CCCCCc1cc(O)c(C2(O)C3(C)CCC(C3)C2(C)C)c(OC)c1 (centres unmarked) [Compound 5b, 2-(2′-hydroxy-6′-methoxy-4′-pentylphenyl)-1,3,3-trimethylbicyclo[2.2.1]heptan-2-ol] | 36.5 nM | agonist | – | E(max)% [2]: 69.5%; EC50 [2]: 82.8 nM |
| CCCCCCc1ccc(OC)c(C2(O)C3(C)CCC(C3)C2(C)C)c1OC (centres unmarked) [Compound 2a, 2-(3′-Hexyl-2′,6′-dimethoxyphenyl)-1,3,3-trimethylbicyclo[2.2.1]heptan-2-ol] | 224 nM and 223 nM | – | > 10000 nM | – |
| CCC(C)(C)c1ccc(OC)c(C2(O)C3(C)CCC(C3)C2(C)C)c1 (centres unmarked) [Compound 3f, 2-(2′-Methoxy-5′-(tert-pentyl)phenyl)-1,3,3-trimethylbicyclo[2.2.1] heptan-2-ol] | 1450 nM | – | – | – |
| CCCCCCC(C)(C)c1cc(O)c(C2(O)C3(C)CCC(C3)C2(C)C)c(OC)c1 (centres unmarked) [Compound 5d, 2-(2′-Hydroxy-6′-methoxy-4′-(2″-methyloctan-2″-yl)phenyl)-1,3,3-trimethylbicyclo-[2.2.1]heptan-2-ol] | – | agonist | – | Ki ([1]; Ki (nM) hCB2R): 24.6 nM and 24.5 nM; EC50 [2]: 14.8 nM; E(max)% [2, 7]: 105% |
| CCCCCCC(C)(C)c1cc(OC)c([C@@H]2C=C(CO)[C@@H]3C[C@H]2C3(C)C)c(OC)c1 [HU-308, reference compound] | – | agonist | – | Ki [3]: > 10000 nM; E(max)% [2, 7]: 100%; reduction in swelling [4]: 20%; inhibition of TNF-α serum levels [5]: 28% |
| CCCCCc1ccc(OC)c(C2(O)C3(C)CCC(C3)C2(C)C)c1 (centres unmarked) [Compound 3c, 2-(2′-Methoxy-5′-pentylphenyl)-1,3,3-trimethylbicyclo[2.2.1]heptan-2-ol] | 444 nM | – | > 10000 nM | – |
| CCCCCc1ccc(OC)c(C2(O)C3(C)CCC(C3)C2(C)C)c1 (centres unmarked) [Compound 3d, 2-(2′-Methoxy-5′-pentylphenyl)-1,3,3-trimethylbicyclo[2.2.1]heptan-2-ol] | 834 nM | – | – | – |
